Entries after “also recorded” stand apart in the source; their conditions may differ. Read-outs that look alike come from different tables or passages of the source.
How the values were obtained:
[1] = test system: intracellular amino acid levels; assay: Intracellular amino acid levels by mass spectrometry; type: cell-based; conditions: starved cells
Method: Profiling of intracellular metabolites was performed on a RRLC 1260 system (Agilent Technologies) coupled to a QTOF 6520 (Agilent) equipped with an electrospray source operating in positive ion and full scan mode from 100 to 1000 Da. The gas temperature was set at 350° C. with a gas flow of 10 L·min^1. The capillary voltage was set at 4.0 kV, and the fragmentor at 150 V. Two reference masses were used to maintain the mass accuracy during analysis: 121.050873 (C5H4N4) and 922.009798 (C18H18O6N3P3F24). Five μL of sample were injected on a 150 mm×2.1 mm 3.5 μm SB Aq column (Agilent) with a pre-column 30 mm×2.1 mm 3.5 μm Eclipse plus (Agilent). The gradient mobile phase consisted of water with 10 mmol/L of ammonium acetate and 0.01% of acetic acid (A) and acetonitrile (B). Initial composition of mobile phase was 2% of B, followed by an increase to 95% of B in 10 min. The flow rate was set to 0.3 mL·min^−1.

AMPK, mTORC1 = assay: Immunoblot of AMPK phosphorylation and mTORC1 activity (p70s6k phosphorylation); type: cell-based, human; conditions: nutrient-depleted (starved) cells in vitro
Method: For immunoblotting, 25 μg of proteins were then separated on 4-12% Bis-Tris acrylamide (Invitrogen) or 12% Tris-Glycine SDS-PAGE precast gels (Biorad, Hercules, USA) and electrotransferred to ImmobilonTM membranes (Millipore Corporation, Billerica, USA). Membranes were then sliced in different parts according to the molecular weight of the protein of interest to allow simultaneous detection of different antigens within the same experiment. […] Development was performed with appropriate horseradish peroxidase (HRP)-labeled secondary antibodies (Southern Biotech, Birmingham, USA) plus the SuperSignal West Pico chemoluminescent substrate (Thermo Scientific-Pierce). An anti-glyceraldehyde-3-phosphate dehydrogenase antibody (Chemicon International, Temecula, USA) was used to control equal loading of lanes.

[2] = test system: autophagy in mice tissues; assay: Autophagy induction in tissues of fed mice (LC3 lipidation, p62, GFP-LC3 dots); type: in vivo
Method: C57BL/6 mice (Charles River Laboratory, Lentilly, France) were bred and maintained according to both the FELASA and the Animal Experimental Ethics Committee Guidelines (Val de Marne, France). Mice were housed in a temperature-controlled environment with 12 h light/dark cycles and received food and water ad libitum. For HC-related experiments, mice were injected intraperitoneally with a single 100 mg/kg dose and 6 h later were sacrificed and tissues were immediately frozen in liquid nitrogen. For DCA- and DMKG-related experiments, mice were subjected to 24 h starvation and injected intraperitoneally each 8 h with a 100 mg/kg of either DCA or DMKG solution prepared in PBS. After 24 h of starvation, mice were sacrificed and tissues were immediately frozen in liquid nitrogen after extraction and homogenized two cycles for 20 s at 5,500 rpm using Precellys 24 tissue homogenator (Bertin Technologies, Montigny-le-Bretonneux, France) in a 20 mM Tris buffer (pH 7.4) containing 150 mM NaCl, 1% Triton X-100, 10 mM EDTA and Complete® protease inhibitor cocktail (Roche Applied Science). Tissue extracts were then centrifuged at 12,000 g at 4° C. and supernatants were collected. Protein concentration in the supernatants was evaluated by the bicinchoninic acid technique (BCA protein assay kit, Pierce Biotechnology, Rockford, Ill.). For hydroxycitrate-related weight-loss experiments, autophagy-deficient Atg4b^−/− mice were used. Atg4b^−/− mice have been previously described (Mariño et al., 2010). For HC-, spermidine-, and resveratrol-related experiments (tumour growth) mice were intraperitoneally injected with respectively 100 mg/kg, 50 mg/kg and 100 mg/kg doses at day 8 and day 9. At day 9, mice were intraperitoneally injected with 2 mg/kg single dose of Mitoxanthrone. For starvation related experiment (tumour growth) mice were treated as previously described (Fabrizio et. al., 2010).
To avoid post-mortem autophagy induction, dead mice were immediately perfused with 4% paraformaldehyde (w:v in PBS, pH 7.4). Tissues were then harvested and further fixed with the same solution for at least 4 h, followed by treatment with 15% sucrose (w:v in PBS) for 4 h and with 30% sucrose (w:v in PBS) overnight. Tissue samples were embedded in Tissue-Tek OCT compound (Sakura Finetechnical Co. Ltd., Tokyo, Japan) and stored at −70° C. Five μm-thick tissue sections were prepared with a CM3050 S cryostat (Leica Microsystems GmbH, Wetzlar, Germany), air-dried for 1 h, washed in PBS for 5 min, dried at RT for 30 min, and mounted with VECTASHIELD anti-fading medium. In each organ, the number of GFP-LC3 dots was counted in five independent visual fields from at least five mice using a TCS SP2 confocal fluorescence microscope (Leica Microsystems GmbH).
Six weeks old female C57BL/6, Balb/c and nude athymic mice (Harlan Laboratory, Gannat, France) were bred and maintained according to both the FELASA and the Animal Experimental Inserm Ethics Committee Guidelines (project: 2012-69). Mice were housed in a temperature-controlled environment with 12 h light/dark cycles and received food and water ad libitum. For tumor growth experiments, procedures adopted are described as follows: 3×10^5 tumor cells were subcutaneously inoculated; when tumors became palpable (day −1 before chemotherapy), mice were first intraperitoneally injected with 100 mg/kg Potassium Hydroxycitrate, 10 mg/kg Acetylsalicylic Acid, 30 mg/kg SB204990, 30 mg/kg c646, 5 mg/kg Rapamycin, 25 mg/kg Resveratrol, 50 mg/kg Spermidine. At day 0, mice were intraperitoneally injected with the abovementioned compounds and with 5.17 mg/Kg Mitoxanthrone or 5 mg/kg Oxaliplatin. Tumor size was measured every two days. For starvation experiments, mice underwent 48 hour fasting followed by intreperitoneal injection of chemotherapeutics. […]

| SMILES | intracellular amino acid levels [1] | AMPK phosphorylation and mTORC1 activity in starved cells (AMPK, mTORC1) | autophagy in vivo (LC3 lipidation, p62, GFP-LC3) [2] | further results |
| --- | --- | --- | --- | --- |
| COC(=O)CCC(=O)C(=O)OC [DMKG, dimethyl-α-ketoglutarate] | failed to enhance intracellular amino acid levels | – | – | – |
| CC(C)CC(=O)C(=O)O [KIC, ketoisocaproic acid] | barely increased intracellular leucine levels | inhibition of AMPK phosphorylation and reversion of mTORC1 dephosphorylation; also recorded: prevented starvation-associated mTORC1 inhibition and AMPK activation | – | – |
| CC1=NN(c2ccc(C(=O)O)cc2)C(=O)/C1=C\c1ccc(-c2cc(C)c(C)cc2[N+](=O)[O-])o1 [c646] | – | – | elicits autophagy in mice muscle after 6 hours; also recorded: induced autophagy both in vitro, in cultured cells, and in vivo, in mice | – |
| O=C(O)CC(O)(C(=O)O)C(O)C(=O)O (centres unmarked) [HC, hydroxycitrate] | – | – | induced an increase in autophagic flux in vivo; also recorded: strongly stimulated autophagy both in vitro and in vivo; also recorded: triggered a systemic autophagic response comparable to that induced by starvation; also recorded: similarly efficient as a starvation period of 48 h | autophagy in vivo (LC3 lipidation, p62, GFP-LC3) ([2]; listed as Hydroxycitrate): elicits autophagy in mice muscle after 6 hours; autophagy in vivo (LC3 lipidation, p62, GFP-LC3) ([2]; listed as hydroxycitrate): triggered a systemic autophagic response comparable to that induced by starvation |
| O=C(O)CCCCC1CCSS1 (centres unmarked) [LA, lipoic acid] | – | blunted starvation-induced mTORC1 inhibition, AMPK activation | – | – |

— patent US11040052B2, “Methods and pharmaceutical compositions for modulating autophagy in a subject in need thereof” (INSERM (INSTITUT NATIONAL DE LA SANTE ET DE LA RECHERCHE …, priority 2013, dated 2021)
